Consider 7 molecules from patent US20240122179A1, “AUXINIC HERBICIDES AND METHODS OF USE THEREOF” (CORTEVA AGRISCIENCE LLC, priority 2021, published 2024).

Each structure is given as a SMILES string.

For one data set, the system named is Amaranthus rudis (AMATA). The experiment in a line: Postemergence herbicide evaluation, percent reduction in plant size vs untreated control, 21 days after treatment. The conditions noted are these: Amaranthus tuberculatus, post-emergence, 504 h, AMATA, postemergence, read-out: Control/Injury; for pest or weed control at 140 g/ha: rate 140 g ae/ha; for pest or weed control at 280 g/ha: rate 280 g ae/ha. In kind it is in vivo, Amaranthus rudis (tall water hemp). The essentials:
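Greenhouse-grown tall waterhemp (25-28° C, 16 h light) at the 2-8 leaf stage, treated by track sprayer at 187 L/ha with compound at 140 or 280 g ae/ha in acetone/DMSO-based spray solution with crop oil and surfactant. 3-4 replicates per treatment, randomized complete block; plant size reduction versus untreated control measured 21 days after treatment.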

Data set [1] relates to Ambrosia artemisiifolia (AMBEL). The description is as above. Format: in vivo, Ambrosia artemisiifolia (common ragweed). Particulars: post-emergence, 504 h, AMBEL, postemergence, read-out: Control/Injury; for pest or weed control at 140 g/ha: rate 140 g ae/ha; for pest or weed control at 280 g/ha: rate 280 g ae/ha. In outline: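 Greenhouse-grown plants (25–28 °C, 16 h light) were sprayed postemergence at the 2–8 leaf stage with 140 or 280 g ae/ha in acetone/DMSO-based spray solution with crop oil and surfactant, at 187 L/ha by track sprayer. There were 3–4 replicates. Plant size was measured 21 days after treatment versus untreated plants.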

The subject of another data set is Kochia scoparia (KCHSC). The description is as above. Format: in vivo. Particulars: Bassia scoparia, post-emergence, 504 h, KCHSC, postemergence, read-out: Control/Injury; for pest or weed control at 140 g/ha: rate 140 g ae/ha; for pest or weed control at 280 g/ha: rate 280 g ae/ha. The essentials: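 Greenhouse-grown plants (25-28 °C, 16 h light) at the 2 to 8 leaf stage were track-sprayed postemergence at 140 or 280 g ae/ha in acetone/DMSO-based spray solution with crop oil and surfactant, at 187 L/ha, in 3-4 randomized replicates.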

Data set [2] has as its system Amaranthus palmeri (AMAPA). The data set is described as above. In kind it is in vivo, Amaranthus palmeri (Palmer amaranth). The conditions noted are these: post-emergence, 504 h, R-AMAPA, postemergence, percent reduction vs untreated control, 21 days after treatment, read-out: Control/Injury; for pest or weed control at 140 g/ha: rate 140 g ae/ha; for pest or weed control at 280 g/ha: rate 280 g ae/ha. The essentials: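 Greenhouse-grown Palmer amaranth (25 to 28° C, 16 h light) sprayed postemergence at the 2 to 8 leaf stage with 140 or 280 g ae/ha in acetone/DMSO-based solution containing crop oil concentrate, 187 L/ha by track sprayer. Three to four replicates; plant size measured 21 days after treatment as percent reduction versus untreated control.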

For data set [3], the system named is Conyza canadensis (L.) (ERICA). The description is as above. In kind it is in vivo, Conyza canadensis (L.) (Horseweed). The conditions noted are these: Erigeron canadensis, post-emergence, 504 h, ERICA, postemergence, percent reduction vs untreated control, 21 days after treatment, read-out: Control/Injury; for pest or weed control at 140 g/ha: rate 140 g ae/ha; for pest or weed control at 280 g/ha: rate 280 g ae/ha. The essentials: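 Horseshoe-weed (horseweed) seedlings at 2 to 8 leaf stage in greenhouse (25-28° C, 16 h light), sprayed postemergence at 140 or 280 g ae/ha in acetone/DMSO-based spray solution, 187 L/ha track-sprayer. Randomized complete block, 3-4 replicates; plant size measured 21 days after treatment as percent reduction vs untreated controls.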

The subject of another data set is Glycine max. Nature of the data set: whole plant or invertebrate. The conditions noted are these: for plant injury at 280 g/ha / plant injury at 140 g/ha: Glycine max, post-emergence, 504 h, read-out: Control/Injury. Here is the method:
Plants were grown in a soil media composed of 90% by volume Promix BX (Premier Tech Horticulture, Quakertown, PA) and 10% Profile Greens Grade (Profile Products LLC, Buffalo Grove, IL). Promix BX contains approximately 83% Sphagnum Peat Moss, 13% Perlite, 5% vermiculite, and proprietary amounts of limestone, starter fertilizer, and wetting agent. Profile Greens Grade is a sand-sized granule formed from calcining illite and montmorillonite clay. Several seeds of each species were planted in 10 cm square pots and top watered twice daily. Plant material was propagated in a warm greenhouse with temperature ranging from 25 to 28° C. and 50 to 60% relative humidity at the Corteva Global Headquarters (Indianapolis, Indiana, USA). Natural light was supplemented with 1000-watt metal halide overhead lamps with an average illumination of 500 μE m^−2 s^−1 photosynthetic active radiation for 16 consecutive hours each day. Plants were top-watered prior to herbicide application and sub-watered after herbicide application.
Appropriate amounts of test materials were weighed out into glass vials in their technical form to deliver either 140 or 280 g acid equivalent (ae)/ha. The samples were dissolved in 3 ml of Solvent 1. Solvent 1 is 97% acetone and 3% dimethyl sulfoxide and serves as a general-purpose solvent (GPS) for dissolving technical materials. […] The samples were then diluted to their final concentration using 17 ml of solvent 2 for a total of 20 ml of spray solution. Solvent 2 contains 41.58% GPS, 45.53% water, 11.88% isopropyl alcohol, 0.99% crop oil concentrate and 0.02% Trition X-155 surfactant. All percentages are listed on a volume basis. Dicamba diglycolamine was applied as a formulated herbicide, Clarity™ and diluted with solvent 2 to compare all materials in the same spray solution.
Herbicide applications were made to 3 to 4 replicates of each plant species at the 2 to 8 leaf stage, depending on the species. Treatments were applied with a research track-sprayer (Generation III Research Sprayer manufactured by DeVries Manufacturing in Hollandale, MN, USA) calibrated to deliver a spray volume of 187 L/ha. The track-sprayer was fitted with an 8003E nozzle from Spray Systems Company (North Avenue and Schmale Road, P.O. Box 7900, Wheaton, IL 60187), and used a spray pressure of 276 kPa pressure and a speed of 3.1 km/h. The nozzle height was 46 cm above the plant canopy. The experimental design used for the trials was a randomized complete block with 3 or 4 replications per treatment. After application, plants were placed on carts according to the randomization and returned to the greenhouse. Plants were sub-watered after treatment with Indianapolis city water or fertilized three times a week with a commercial fertilizer solution (Jack's Professional 15-5-15 4 Ca 2 Mg fertilizer (manufactured by JR PETERS INC., 6656 Grant Way, Allentown, PA 18106; www.jrpeters.com). Percent visual control assessments were made on a scale of 0 to 100% (where 0 was no control and 100 was complete plant death) at 7, 14, and 21 days after treatment.
In conformity with the methods outlined in Example 49, the effect of representative experimental compounds on the growth of Glycine max was determined at 2 different levels (respectively, 140 and 280 g acid equivalent (ae)/ha) of the experimental actives tested. Plants were treated with one of the compounds, a control plant was not treated. Twenty-one days after treatment, the plants were measured. The data is present as a percent reduction in plant size relative to the untreated control.

In the case of `COc1c(Cl)ccc(Cl)c1C(=O)OCC[N+](C)(C)C` [Compound A-63], the pest or weed control at 140 g/ha in the data set with Amaranthus rudis (AMATA) was 58%; in data set [1] it was 82%; in the data set with Kochia scoparia (KCHSC), 92%; in data set [2], 73%; in data set [3], 85%. Further, the pest or weed control at 280 g/ha with Amaranthus rudis (AMATA) was 77%; in data set [1], 97%; in the data set with Kochia scoparia (KCHSC), 97%; in data set [2] it was 87%; in data set [3], 92%. The Control/Injury with Glycine max (GLXMA (soybean crop injury), rate 140 g ae/ha, postemergence, percent reduction vs untreated control, 21 days after treatment) was determined as 2; in the data set on Glycine max (GLXMA (soybean crop injury), rate 280 g ae/ha, postemergence, percent reduction vs untreated control, 21 days after treatment) it was 5.

Consider `COc1c(Cl)ccc(Cl)c1C(=O)Oc1cncnc1` [Compound A-66], for which the pest or weed control at 140 g/ha was 0% with Amaranthus rudis (AMATA); 15% in data set [1]; 0% with Kochia scoparia (KCHSC); 13% in data set [2]; 0% in data set [3]. The pest or weed control at 280 g/ha turned out to be 2% in the data set with Amaranthus rudis (AMATA); 15% in data set [1]; 0% in the data set with Kochia scoparia (KCHSC); 5% in data set [2]; 2% in data set [3]. Besides, the Control/Injury with Glycine max (in vivo) is 3.

For `COc1c(Cl)ccc(Cl)c1C(=O)ON1C(=O)CCC1=O` [Compound A-73], the pest or weed control at 140 g/ha amounted to 50% with Amaranthus rudis (AMATA); 77% in data set [1]; 82% with Kochia scoparia (KCHSC); 70% in data set [2]; 85% in data set [3]. The pest or weed control at 280 g/ha in the data set on Amaranthus rudis (AMATA) was 88%; in data set [1] it was 82%; in the data set with Kochia scoparia (KCHSC), 88%; in data set [2], 83%; in data set [3], 80%. Also, the plant injury at 280 g/ha in the data set on Glycine max amounted to 4%. Moreover, the Control/Injury in the data set with Glycine max (in vivo) was determined as 1.

Consider `COc1c(Cl)ccc(Cl)c1C(=O)ON1C(=O)c2ccccc2C1=O` [Compound A-74], for which the pest or weed control at 140 g/ha is 70% with Amaranthus rudis (AMATA); 77% in data set [1]; 94% in the data set on Kochia scoparia (KCHSC); 68% in data set [2]; 70% in data set [3]. Besides, the pest or weed control at 280 g/ha amounted to 90% in the data set on Amaranthus rudis (AMATA); 88% in data set [1]; 97% in the data set with Kochia scoparia (KCHSC); 85% in data set [2]; 83% in data set [3]. Further, in the data set with Glycine max, the plant injury at 140 g/ha was 2%. Moreover, the plant injury at 280 g/ha in the data set on Glycine max was 3%.

Regarding `COc1c(Cl)ccc(Cl)c1C(=O)ON(C)C(=O)Nc1ccccc1` [Compound A-75], the pest or weed control at 140 g/ha is 58% in the data set on Amaranthus rudis (AMATA); 82% in data set [1]; 88% with Kochia scoparia (KCHSC); 73% in data set [2]; 72% in data set [3]. For the same molecule, the pest or weed control at 280 g/ha came out at 85% with Amaranthus rudis (AMATA); 88% in data set [1]; 97% in the data set on Kochia scoparia (KCHSC); 91% in data set [2]; 73% in data set [3]. The plant injury at 140 g/ha in the data set with Glycine max worked out at 3%. Moreover, in the data set with Glycine max, the plant injury at 280 g/ha came out at 3%.

For the molecule `COc1c(Cl)ccc(Cl)c1C(=O)Oc1ccc(Cl)cc1` [Compound A-76], the pest or weed control at 140 g/ha in the data set with Amaranthus rudis (AMATA) was found to be 68%; in data set [1], 80%; with Kochia scoparia (KCHSC) it was 83%; in data set [2], 55%; in data set [3], 68%. The pest or weed control at 280 g/ha in the data set on Amaranthus rudis (AMATA) is 67%; in data set [1], 83%; with Kochia scoparia (KCHSC), 87%; in data set [2], 65%; in data set [3], 55%. The plant injury at 140 g/ha with Glycine max amounted to 4%. Also, in the data set with Glycine max, the plant injury at 280 g/ha amounted to 4%.

In the case of `COc1c(Cl)ccc(Cl)c1C(=O)Nc1ccc(Cl)cc1` [Compound A-77], the pest or weed control at 140 g/ha in the data set with Amaranthus rudis (AMATA) stood at 83%; in data set [1], 67%; in the data set with Kochia scoparia (KCHSC) it was 96%; in data set [2] it was 82%; in data set [3] it was 40%. Further, the pest or weed control at 280 g/ha in the data set on Amaranthus rudis (AMATA) worked out at 85%; in data set [1], 77%; in the data set with Kochia scoparia (KCHSC) it was 93%; in data set [2], 78%; in data set [3], 68%. Besides, in the data set with Glycine max, the plant injury at 140 g/ha was 8%. In addition, the plant injury at 280 g/ha in the data set on Glycine max was 8%.
